System: 885724-159-R-J1-PDC complex spheroid viability
Assay: Anticancer human tumor 885724-159-R-J1-PDC patient-derived pancreatic adenocarcinoma cell line growth inhibition [POLQ]
Details: for IC50: curve of first compound; for viability, T/C: stronger effect = lower value; active = viability on the fitted dose curve at most 10% of control; inactive = the rest
Procedure: Multicellular complex tumor spheroid response to Polymerase (POL) inhibitors (novobiocin, ART-558, RP6685) in combination with a variety of drugs and investigational agents in selected tumor cell lines
The POL inhibitors (novobiocin, ART-558, and RP6685) were evaluated both individually and in combination with standard of care and investigational anticancer small molecules within a complex spheroid model of solid tumors. . Complex spheroids include a stromal component modeled by human endothelial cells (HUVEC) and fibroblasts modeled by human mesenchymal stem cells (MSCs). The concentration ranges selected for each drug and investigational agent were based upon clinically achievable concentrations if the clinical Cmax of the agent was known.
Compounds. The drugs and investigational agents: novobiocin (NSC847541), ART-558 (NSC835418), RP-6685 (NSC848927), peposertib (NSC802822), ceralasertib (NSC780249), elimusertib (NSC800525), camonsertib (NSC841442), AZD-1390 (NSC803789), olaparib (NSC753686), talazoparib (NSC767125), rucaparib (NSC756644), sotorasib (NSC818433), MRTX-1133 (NSC836407), SN-38 (NSC673596), topotecan (NSC609699), epotoside (NSC141540), doxorubicin (NSC123127), gemcitabine (NSC613327), 5-fluorouracil (NSC19893), paclitaxel (NSC125973), vemurafenib (NSC761431), MSA-2 (NSC828583), SN-011 (NSC837082), adavosertib (NSC754352), prexasertib (NSC758257), carboplatin (NSC241240) and oxaliplatin (NSC266046), were obtained from the National Cancer Institute (NCI) Developmental Therapeutics Program Chemical Repository (21). The FDA-approved anticancer drug set is available from the Developmental Therapeutics Program at https://dtp.cancer.gov/organization/dscb/obtaining/. […] The stock solutions were prepared in dimethyl sulfoxide (DMSO, Sigma-Aldrich, St. Louis, MO, cat. D2650), except for the platinum compounds which were prepared in saline (Quality Biological, Gaithersburg, MD, cat. 114-055-101), at 800-fold the tested concentration and stored at -70 degrees C prior to their use. All drugs and investigational agents were tested over a range starting from a high concentration at or near the clinical Cmax and decreasing in half-log increments. If the clinical Cmax for an agent had not been determined, the highest concentration tested was 10 microM, except for SN-38, which was tested at a high concentration of 1 microM.
Cell Culture. All cells were maintained in an incubator at 37 degrees C and 5% CO2 with 95% humidity. The PDC lines were cultured according to standard operating procedures established by the NCI PDMR (https://pdmr.cancer.gov). Table 3 of the manuscript, lists the cell lines along with the number of the three cell types plated to form the mct-spheroids and media for tumor cell growth. After thawing, all PDC lines, except 997537-175-T-J1-PDC and 415267-285-R-J2-PDC, were cultured in Matrigel-coated flasks prepared with a working solution of 1X Ham's F-12 nutrient mix, without supplementation (Thermo Fisher Scientific, cat. 11765054), 100 U/mL penicillin-streptomycin (Thermo Fisher Scientific, cat. 15140122), and 2.5% Matrigel (Corning Inc., Corning, NY, cat. 354248) for the first three passages. The two PDC lines 997537-175-T-J1-PDC and 415267-285-R-J2-PDC were cultured on uncoated flasks. The 857933-349-R-J2-PDC line was cultured in 6C/Colon 1B media containing advanced DMEM/F-12 (Thermo Fisher Scientific, cat. 12634028), 10 mM HEPES (Thermo Fisher Scientific, cat. 15630080), 1X GlutaMAX supplement (Thermo Fisher Scientific, cat. 35050061), 0.1 mg/mL primocin (InvivoGen, San Diego, CA, cat. ant-pm-2), 10% defined fetal bovine serum, heat inactivated (HyClone Laboratories Inc., Logan, UT, cat. SH30070.03HI), 50% L-WRN conditioned media (ATCC, cat. CRL-3276), 1.25 mM N-Acetyl-L-cysteine (Sigma-Aldrich, cat. A9165), 10 mM nicotinamide (Sigma-Aldrich, cat. N0636), 1X B-27 supplement (Thermo Fisher Scientific, cat. 17504044), 1X N-2 supplement (Thermo Fisher Scientific, cat. […]
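Also: spheroids exposed to compounds for 7 days.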

CCc1cc2c(N3CCc4c(cc(Cn5ccnc5)cc4-c4cn(C)nc4C(F)(F)F)C3=O)ccnc2c(OC)n1 + Cc1cccc(N(C)C(=O)C2C(O)CCN2c2nc(C)cc(C(F)(F)F)c2C#N)c1
> 10 µM: IC50 (second compound 0.0316 µM) | IC50 (second compound 0.1 µM) | IC50 (second compound 0.316 µM) | IC50 (second compound 1 µM) | IC50 (second compound 3.16 µM) | IC50 (second compound 10 µM)
inactive: viability, T/C (second compound 0.0316 µM, first compound 0.0316 µM) 94% | viability, T/C (second compound 0.0316 µM, first compound 0.1 µM) 82.9% | viability, T/C (second compound 0.0316 µM, first compound 0.316 µM) 81.8% | viability, T/C (second compound 0.0316 µM, first compound 1 µM) 89.2% | viability, T/C (second compound 0.0316 µM, first compound 3.16 µM) 74.3% | viability, T/C (second compound 0.0316 µM, first compound 10 µM) 78.4% | viability, T/C (second compound 0.1 µM, first compound 0.0316 µM) 104% | viability, T/C (second compound 0.1 µM, first compound 0.1 µM) 81.7% | viability, T/C (second compound 0.1 µM, first compound 0.316 µM) 88.6% | viability, T/C (second compound 0.1 µM, first compound 1 µM) 83.6% | viability, T/C (second compound 0.1 µM, first compound 3.16 µM) 84.7% | viability, T/C (second compound 0.1 µM, first compound 10 µM) 63.8% | viability, T/C (second compound 0.316 µM, first compound 0.0316 µM) 96% | viability, T/C (second compound 0.316 µM, first compound 0.1 µM) 89.9% | viability, T/C (second compound 0.316 µM, first compound 0.316 µM) 84.4% | viability, T/C (second compound 0.316 µM, first compound 1 µM) 89.1% | viability, T/C (second compound 0.316 µM, first compound 3.16 µM) 82.5% | viability, T/C (second compound 0.316 µM, first compound 10 µM) 59.5% | viability, T/C (second compound 1 µM, first compound 0.0316 µM) 83.8% | viability, T/C (second compound 1 µM, first compound 0.1 µM) 84.7% | viability, T/C (second compound 1 µM, first compound 0.316 µM) 92.4% | viability, T/C (second compound 1 µM, first compound 1 µM) 79.7% | viability, T/C (second compound 1 µM, first compound 3.16 µM) 85.5% | viability, T/C (second compound 1 µM, first compound 10 µM) 62.8% | viability, T/C (second compound 3.16 µM, first compound 0.0316 µM) 94.2% | viability, T/C (second compound 3.16 µM, first compound 0.1 µM) 85.5% | viability, T/C (second compound 3.16 µM, first compound 0.316 µM) 86.6% | viability, T/C (second compound 3.16 µM, first compound 1 µM) 89.7% | viability, T/C (second compound 3.16 µM, first compound 3.16 µM) 79.4% | viability, T/C (second compound 3.16 µM, first compound 10 µM) 72.6% | viability, T/C (second compound 10 µM, first compound 0.0316 µM) 92.8% | viability, T/C (second compound 10 µM, first compound 0.1 µM) 83.7% | viability, T/C (second compound 10 µM, first compound 0.316 µM) 86.4% | viability, T/C (second compound 10 µM, first compound 1 µM) 87.8% | viability, T/C (second compound 10 µM, first compound 3.16 µM) 72.7% | viability, T/C (second compound 10 µM, first compound 10 µM) 63.5%

CC(=O)O[C@H]1C(=O)[C@@]2(C)[C@H]([C@H](OC(=O)c3ccccc3)[C@]3(O)C[C@H](OC(=O)[C@H](O)[C@@H](NC(=O)c4ccccc4)c4ccccc4)C(C)=C1C3(C)C)[C@]1(OC(C)=O)CO[C@@H]1C[C@@H]2O + Nc1ccc(C#CCN(C(=O)Cc2ncc(C(F)(F)F)cc2C(F)(F)F)c2ccc(F)cc2)nn1
> 3 µM: IC50 (second compound 0.0316 µM) | IC50 (second compound 0.1 µM) | IC50 (second compound 0.316 µM) | IC50 (second compound 1 µM) | IC50 (second compound 3.16 µM) | IC50 (second compound 10 µM)
inactive: viability, T/C (second compound 0.0316 µM, first compound 0.00949 µM) 65.9% | viability, T/C (second compound 0.0316 µM, first compound 0.03 µM) 59.9% | viability, T/C (second compound 0.0316 µM, first compound 0.0949 µM) 56.6% | viability, T/C (second compound 0.0316 µM, first compound 0.3 µM) 64.7% | viability, T/C (second compound 0.0316 µM, first compound 0.949 µM) 62.5% | viability, T/C (second compound 0.0316 µM, first compound 3 µM) 70.3% | viability, T/C (second compound 0.1 µM, first compound 0.00949 µM) 69.9% | viability, T/C (second compound 0.1 µM, first compound 0.03 µM) 61.7% | viability, T/C (second compound 0.1 µM, first compound 0.0949 µM) 62.5% | viability, T/C (second compound 0.1 µM, first compound 0.3 µM) 69.1% | viability, T/C (second compound 0.1 µM, first compound 0.949 µM) 70% | viability, T/C (second compound 0.1 µM, first compound 3 µM) 68.9% | viability, T/C (second compound 0.316 µM, first compound 0.00949 µM) 71.8% | viability, T/C (second compound 0.316 µM, first compound 0.03 µM) 60.4% | viability, T/C (second compound 0.316 µM, first compound 0.0949 µM) 68% | viability, T/C (second compound 0.316 µM, first compound 0.3 µM) 58.1% | viability, T/C (second compound 0.316 µM, first compound 0.949 µM) 71.2% | viability, T/C (second compound 0.316 µM, first compound 3 µM) 74% | viability, T/C (second compound 1 µM, first compound 0.00949 µM) 63.4% | viability, T/C (second compound 1 µM, first compound 0.03 µM) 61.5% | viability, T/C (second compound 1 µM, first compound 0.0949 µM) 58.6% | viability, T/C (second compound 1 µM, first compound 0.3 µM) 63% | viability, T/C (second compound 1 µM, first compound 0.949 µM) 70.2% | viability, T/C (second compound 1 µM, first compound 3 µM) 69.5% | viability, T/C (second compound 3.16 µM, first compound 0.00949 µM) 64.8% | viability, T/C (second compound 3.16 µM, first compound 0.03 µM) 66.5% | viability, T/C (second compound 3.16 µM, first compound 0.0949 µM) 61.9% | viability, T/C (second compound 3.16 µM, first compound 0.3 µM) 60% | viability, T/C (second compound 3.16 µM, first compound 0.949 µM) 68.3% | viability, T/C (second compound 3.16 µM, first compound 3 µM) 75% | viability, T/C (second compound 10 µM, first compound 0.00949 µM) 67.4% | viability, T/C (second compound 10 µM, first compound 0.03 µM) 59.2% | viability, T/C (second compound 10 µM, first compound 0.0949 µM) 66.2% | viability, T/C (second compound 10 µM, first compound 0.3 µM) 70% | viability, T/C (second compound 10 µM, first compound 0.949 µM) 75.3% | viability, T/C (second compound 10 µM, first compound 3 µM) 71.8%
